Legend:
[1] = test system: Plasmodium falciparum; experiment: NOVARTIS: Inhibition of Plasmodium falciparum W2 (drug-resistant) proliferation in erythrocyte-based infection assay; format: functional, organism-based
[2] = test system: Plasmodium falciparum; experiment: NOVARTIS: Inhibition of Plasmodium falciparum 3D7 (drug-susceptible) proliferation in erythrocyte-based infection assay; format: functional, organism-based; conditions: Plasmodium falciparum, 3D7
[3] = NOVARTIS: Cytotoxicity against human hepatocellular carcinoma cell line (Huh7); format: toxicity, cell-based, Huh-7; conditions: Huh7 cells (hepatocellular carcinoma cell line)
[4] = Plasmodium falciparum, W2, read-out: EC50

SMILES	EC50 [1, 4]	EC50 [2]	CC50 [3]	EC50 [1]
CN(C)c1ccc(N=C2NC(=O)/C(=C/c3ccc(Cl)cc3)S2)cc1	1460 nM	819 nM	> 10000 nM	
Cc1nc2cc(-c3ccc(Br)cc3)nn2c(O)c1C		2740 nM	> 100000 nM	No fit
CCOC(=O)c1c(NC(=O)CSc2nnc(CNC(=O)c3cccc(OC)c3)n2C2CCCCC2)sc2c1CCCC2	> 1670 nM	> 295 nM	> 10000 nM	
C=CC1CN2CCC1CC2[C@@H](OC(=O)/C=C/c1ccc(Cl)cc1)c1ccnc2ccc(OC)cc12 (some centres undefined)	252 nM	272 nM	> 10000 nM	
CCCCCN(CCCCC)C(O)c1cc2c(c3ccccc13)CCCC2 (centres undefined)	377 nM	58.2 nM	35400 nM	
O=C(CN1CCCC1)Nc1nc(-c2ccc3c(c2)CCN3S(=O)(=O)c2ccccc2)cs1	1270 nM	468 nM	> 76200 nM	
Cc1ccccc1Nc1nc(NCc2ccco2)c2ccccc2n1	529 nM	548 nM	15600 nM	
CCOc1ccc(Nc2cc(C)nc3c(C)cc(C)cc23)cc1	225 nM	484 nM	19200 nM	
O=C1CC(c2ccccc2)CC2=C1C(c1ccccc1F)Nc1ccccc1N2 (centres undefined)	359 nM	462 nM	> 100000 nM	
CCCCc1c(CCC)c(=N)c2ccccc2n1C	422 nM	311 nM	71900 nM	
CS(=O)(=O)Nc1cccc(-c2cnc(N)c(-c3ccc(C(=O)N4CCOCC4)cc3)n2)c1	> 1250 nM	> 976 nM	> 10000 nM	
CCCCCCCN(CCCCCCC)CC(O)c1cc2ccccc2c2cc(Br)ccc12 (centres undefined)	136 nM	867 nM	> 4630 nM	
CCCCCCCCC(=O)Nc1c(C)cccc1C	26.7 nM	> 1250 nM	> 10000 nM	
COC(=O)C1=C(C)N(c2ccc(N(C)C)cc2)C(C)=C(C(=O)OC)C1c1ccc(Br)cc1	> 1220 nM	> 1250 nM	> 10000 nM	
Cc1cc(N2CCN(C3CCCCC3)CC2)n2c(nc3ccccc32)c1C#N	203 nM	63.5 nM	> 100000 nM	
COc1ccc2c(C)nc(NC(=N)N)nc2c1	1020 nM	417 nM	66400 nM	
COc1ccc(C2CC(=O)C3=C(C2)NC(C)=C(C(=O)OC2CCCC2)C3c2ccccc2Cl)cc1OC (centres undefined)	7.38 nM	55.8 nM	> 100000 nM	
CCCCN1C=Nc2cc(C(=O)NCc3ccc(OC)cc3)ccc2C1	243 nM	463 nM	> 10000 nM	
O=C(c1cccs1)N(Cc1cccs1)c1ccc([N+](=O)[O-])cc1	888 nM	677 nM	> 10000 nM	
CC(=O)N(C1=C(N2CCOCC2)C(=O)c2ccccc2C1=O)c1cccc(Cl)c1	187 nM	214 nM	4720 nM	
C=C[C@H]1CN2CC[C@H]1C[C@H]2[C@H](OC(=O)CCC)c1ccnc2ccccc12	286 nM	335 nM	> 10000 nM	
CCOC(=O)C1CCN(C(=O)c2c(C)oc3c2C(=O)c2ccccc2C3=O)CC1	103 nM	201 nM	22200 nM	
COc1ccc(/C=C/C(=O)NC(=O)c2ccccc2O)cc1	92.1 nM	118 nM	> 10000 nM	
N#C/C(=C\n1cc(Cc2ccc(Cl)cc2Cl)c2ccccc21)c1nn(CCO)c(N)c1C#N	929 nM	913 nM	> 10000 nM	
Cc1ccc2nc(Nc3nc(O)c4ccccc4n3)nc(C)c2c1	> 1620 nM	575 nM	> 10000 nM	
COc1ccc(NC(=O)C2c3ccccc3C(=O)N(CC(C)C)C2c2cccs2)cc1Cl (centres undefined)	55.6 nM	91.4 nM	> 100000 nM	
CCOc1ccccc1C1NC(=O)NC(C)=C1C(=O)OCC(F)(F)C(F)(F)F (centres undefined)	> 913 nM	> 1250 nM	> 10000 nM	
CC(=O)c1ccc(-n2cc(C(=O)C(C)Oc3ccc(Cl)cc3Cl)nn2)cc1 (centres undefined)	192 nM	72.9 nM	> 10000 nM	

— ChEMBL document CHEMBL1156829 (Proc Natl Acad Sci U S A, 2008)
